From patent US20250171420A1 (Monte Rosa Therapeutics, Inc., priority 2022, published 2025)

Assays:
[1] = target: T1, CK1α (Homo sapiens, UniProt P48729); test: CK1α NanoBit Assay (HiBiT-tagged CSNK1A1, HEK293 clonal lines); type: cell-based; conditions: HEK293 HiBiT-CSNK1A1/LgBiT cells, 24 h incubation
T1 construct: HEK293 clonal lines with CRISPR KI HiBiT tag on CSNK1A1
Description: HEK293 clonal lines with CRISPR KI HiBiT tag on CSNK1A1 and stably expressing LgBiT protein were obtained from Promega (Madison, WI). […] Cells were incubated at 37° C., 5% CO2 for 24 hours and then signal was read on a Pherastar FSX using “LUM plus” optic module.
Data analysis was performed in Scinamic (Scinamic, Cambridge, MA). Luminescence response (R) was calculated by the formula: response=100*(S−N)/(P−N) where S is the signal of the well, N and P the mean negative and positive control values respectively of the same plate.
DC50 data are reported in Table 2 for compounds in Table 1. In Table 2 below, According to the code, A represents a DC50 value of ≤0.1 μM, B represents a DC50 value>0.1 μM and ≤1 μM, C represents an DC50 value>1 μM.

[2] = target: CRBN/DDB1 (Homo sapiens, UniProt Q96SW2); test: HTRF binding assay (displacement of Cy5-thalidomide probe from CRBN/DDB1); conditions: CRBN/DDB1 2.5 nM, Cy5-Thalidomide 100 nM, 30 min; geometric mean; read-out: HTRF_Thali_Disp_DR_geo_IC50
Sequence of CRBN/DDB1 (Q96SW2 whole entry, species assumed): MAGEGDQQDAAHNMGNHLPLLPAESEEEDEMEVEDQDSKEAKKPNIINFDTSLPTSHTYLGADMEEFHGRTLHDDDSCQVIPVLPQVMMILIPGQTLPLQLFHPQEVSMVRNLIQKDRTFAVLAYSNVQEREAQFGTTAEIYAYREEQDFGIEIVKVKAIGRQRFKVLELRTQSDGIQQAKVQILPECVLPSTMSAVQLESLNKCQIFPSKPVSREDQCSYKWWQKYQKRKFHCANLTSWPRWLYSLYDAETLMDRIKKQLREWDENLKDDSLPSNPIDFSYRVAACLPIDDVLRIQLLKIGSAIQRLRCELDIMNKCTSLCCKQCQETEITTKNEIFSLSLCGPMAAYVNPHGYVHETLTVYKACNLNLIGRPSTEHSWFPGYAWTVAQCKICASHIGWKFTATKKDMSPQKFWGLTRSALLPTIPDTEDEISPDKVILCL
Sequence of CRBN/DDB1 (Q16531 whole entry partner, species assumed): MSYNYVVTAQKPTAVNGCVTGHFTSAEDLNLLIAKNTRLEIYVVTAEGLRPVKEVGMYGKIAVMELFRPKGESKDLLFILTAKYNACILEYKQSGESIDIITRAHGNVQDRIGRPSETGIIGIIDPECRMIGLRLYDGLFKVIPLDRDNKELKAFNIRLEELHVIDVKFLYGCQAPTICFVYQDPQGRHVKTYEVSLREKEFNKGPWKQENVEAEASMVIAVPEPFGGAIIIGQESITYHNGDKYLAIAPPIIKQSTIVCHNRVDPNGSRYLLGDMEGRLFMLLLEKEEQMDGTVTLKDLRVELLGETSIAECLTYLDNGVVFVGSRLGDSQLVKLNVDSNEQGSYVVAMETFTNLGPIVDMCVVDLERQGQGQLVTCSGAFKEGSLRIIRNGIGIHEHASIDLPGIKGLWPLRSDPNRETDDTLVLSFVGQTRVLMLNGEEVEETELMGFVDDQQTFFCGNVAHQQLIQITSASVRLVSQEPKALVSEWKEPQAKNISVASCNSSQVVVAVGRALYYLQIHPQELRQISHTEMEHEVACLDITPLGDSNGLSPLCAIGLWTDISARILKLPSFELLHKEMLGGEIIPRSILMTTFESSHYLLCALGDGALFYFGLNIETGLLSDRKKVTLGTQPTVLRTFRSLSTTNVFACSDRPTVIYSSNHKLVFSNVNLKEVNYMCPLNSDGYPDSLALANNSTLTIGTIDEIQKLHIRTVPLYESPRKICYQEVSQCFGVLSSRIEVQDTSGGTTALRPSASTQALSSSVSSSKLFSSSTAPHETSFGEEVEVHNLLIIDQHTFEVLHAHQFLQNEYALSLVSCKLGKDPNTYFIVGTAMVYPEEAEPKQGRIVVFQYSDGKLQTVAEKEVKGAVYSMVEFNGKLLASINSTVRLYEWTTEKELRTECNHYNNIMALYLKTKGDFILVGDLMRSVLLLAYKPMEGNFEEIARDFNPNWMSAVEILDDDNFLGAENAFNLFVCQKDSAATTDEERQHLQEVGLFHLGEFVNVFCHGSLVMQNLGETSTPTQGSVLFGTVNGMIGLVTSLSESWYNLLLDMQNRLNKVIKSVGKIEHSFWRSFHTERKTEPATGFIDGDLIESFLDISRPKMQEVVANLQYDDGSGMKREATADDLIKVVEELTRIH
Excerpt: Binding of test compounds to CRBN/DDB1 was monitored in an HTRF assay using 1-[5-({2-[2-(2-{[2-(2,6-dioxopiperidin-3-yl)-1,3-dioxo-2,3-dihydro-1H-isoindol-4-yl]oxy}acetamido)ethoxy]ethyl}carbamoyl)pentyl]-3,3-dimethyl-2-[(1E,3E)-5-[(2E)-1,3,3-trimethyl-5-sulfo-2,3-dihydro-1H-indol-2-ylidene]penta-1,3-dien-1-yl]-3H-indol-1-ium-5-sulfonate as a fluorescent probe. In this assay, compounds displace the fluorescently labeled thalidomide-based probe bound to CRBN and fluorescence is monitored with increasing compound concentration. Assays were conducted in Greiner white 384 well HiBase plates (Cat. No 784075-25) in 10 μL total volume. A one pot detection solution of CRBN/DDB1 (2.5 nM), anti-His Terbium Cryptate Gold (1×, PerkinElmer Cat. #: 61HI2TLB), and Cy5-Thalidomide (100 nM, Tenova Cat.: T52461) was prepared in 20 mM HEPES, 20 mM NaCl, 0.2 mM TCEP, 0.2 mM EDTA, and 0.005% Tween20 was dispensed to each assay plate. Test compounds were stored in dry, ambient temperatures at 10 mM. A 10-point, 1:3 dilution series was prepared from 10 mM stock concentrations in Echo-compatible LDV plates. 10 nL of each compound dilution series was dispensed into assays wells using an Echo 650 (Labcyte inc. USA). 10 nL of 10 mM lenalidomide (Selleckchem Cat no. S1029) was transferred into the active-control wells for the assay and 10 nL of DMSO was transferred into the negative control wells. The assay was then allowed to incubate for 30 min at ambient temperature after transferring the test compounds. Plate measurements were taken on a Pherastar FSX (BMG Labtech, Germany) using the HTRF Red filter (Ex. 337 nm, em1: 620 nm, em2: 665 nm) (Flashes: 50, Integration time: 60-400 μs, Z-height: 10 mm, Ratio-multiplier: 10,000). Analysis, HTRF ratio and IC50 values were derived using KNIME analytics (KNIME Zurich) transformation and fitting within Collaborative Drug Discovery (Collaborative Drug Discovery USA) using a 4-parameter logistic fit. HTRF ratio calculation was performed using the following formula: […]
where Y represents the HTRF ratio response (as defined previously), X the compound concentration in μM, Ymin the minimum response plateau, Ymax the maximum response plateau, IC50 the concentration of agonist that gives a response half way between Ymin and Ymax and HillSlope the steepness of the family of curves. No fitting model constraints was applied on Ymin, or Ymax whilst IC50>0 and −0.5>HillSlope>−3
Ki values were derived from the geometric mean of the IC50 values using the Cheng-Prusoff transformation:
where [L] represents the concentration of fluorescent probe in μM, Kd the affinity (binding constant) of the fluorescent probe in units of μM and IC50 the concentration of agonist that gives a response halfway between Ymin and Ymax (as described in 1.2.1)
Analysis and IC50 values were derived using KNIME analytics (KNIME, Zurich) transformation and fitting within Collaborative Drug Discovery (Collaborative Drug Discovery, USA) as described in 1.2.1. Ki values were derived from the geometric mean of the IC50 values using the Cheng-Prusoff transformation as described in 2.2.2. Data was visualized in GraphPad Prism 8.1.2 (GraphPad, USA) and reported as mean and standard deviation. Microsoft Office Excel 2012 (Redmond, WA) was used for calculation of mean and standard deviation.
IC50 data are reported in Table 3 for compounds in Table 1. In Table 3 below, According to the code, A represents a IC50 value of ≤0.1 μM, B represents a IC50 value>0.1 μM and ≤1 μM, C represents an IC50 value>1 μM.

T1 sequence (P48729 whole entry): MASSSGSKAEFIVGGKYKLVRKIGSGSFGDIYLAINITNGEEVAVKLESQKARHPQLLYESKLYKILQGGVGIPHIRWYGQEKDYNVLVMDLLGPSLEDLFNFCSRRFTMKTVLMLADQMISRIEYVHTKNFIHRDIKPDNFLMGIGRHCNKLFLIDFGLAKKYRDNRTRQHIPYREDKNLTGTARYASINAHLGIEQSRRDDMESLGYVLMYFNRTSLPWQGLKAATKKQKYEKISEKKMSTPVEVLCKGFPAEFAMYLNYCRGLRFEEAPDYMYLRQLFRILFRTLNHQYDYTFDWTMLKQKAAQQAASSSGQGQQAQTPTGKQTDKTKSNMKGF
T1 sequence (Q96SW2 whole entry, further chain): as the sequence (Q96SW2 whole entry, species assumed) above
T1 sequence (Q16531 2-1140 partner limits assumed): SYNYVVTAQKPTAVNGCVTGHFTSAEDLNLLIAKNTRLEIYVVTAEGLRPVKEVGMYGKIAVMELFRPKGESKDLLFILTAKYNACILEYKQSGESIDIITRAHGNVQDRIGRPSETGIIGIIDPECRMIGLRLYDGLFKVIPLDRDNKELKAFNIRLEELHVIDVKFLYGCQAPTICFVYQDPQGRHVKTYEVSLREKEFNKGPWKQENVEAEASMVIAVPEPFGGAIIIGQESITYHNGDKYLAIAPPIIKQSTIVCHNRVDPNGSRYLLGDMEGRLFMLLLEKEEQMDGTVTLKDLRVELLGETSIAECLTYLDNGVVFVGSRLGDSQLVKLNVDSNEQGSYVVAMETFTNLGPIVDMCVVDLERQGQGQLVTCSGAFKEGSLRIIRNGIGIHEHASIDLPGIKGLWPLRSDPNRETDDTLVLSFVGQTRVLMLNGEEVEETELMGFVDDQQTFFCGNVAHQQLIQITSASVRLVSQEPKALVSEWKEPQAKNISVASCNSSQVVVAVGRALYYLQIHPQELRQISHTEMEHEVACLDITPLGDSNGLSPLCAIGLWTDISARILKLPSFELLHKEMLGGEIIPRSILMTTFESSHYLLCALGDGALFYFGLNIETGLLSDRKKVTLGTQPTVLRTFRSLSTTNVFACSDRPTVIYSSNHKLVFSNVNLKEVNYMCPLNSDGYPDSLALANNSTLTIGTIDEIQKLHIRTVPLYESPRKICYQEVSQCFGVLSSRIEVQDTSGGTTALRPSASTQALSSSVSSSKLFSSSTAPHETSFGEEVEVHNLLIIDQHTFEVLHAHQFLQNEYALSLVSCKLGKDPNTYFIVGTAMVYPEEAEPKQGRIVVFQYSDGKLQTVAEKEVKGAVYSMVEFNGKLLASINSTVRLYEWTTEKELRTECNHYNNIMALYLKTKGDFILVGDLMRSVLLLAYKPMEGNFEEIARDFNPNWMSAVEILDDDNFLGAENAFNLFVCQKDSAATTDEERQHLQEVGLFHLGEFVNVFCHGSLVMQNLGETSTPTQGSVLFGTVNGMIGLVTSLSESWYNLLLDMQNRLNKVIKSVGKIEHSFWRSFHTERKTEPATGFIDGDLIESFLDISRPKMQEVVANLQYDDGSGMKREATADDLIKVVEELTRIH

DC50 [1]	IC50 [2]	SMILES
< 0.1 µM	0.1 to 1 µM	N#Cc1ccc2c(c1)N(C(=O)Nc1ccc3c(c1)CN(C1CCC(=O)NC1=O)C3=O)CC2 (centres unmarked) [Compound 115, 6-cyano-N-(2-(2,6-dioxopiperidin-3-yl)-1-oxoisoindolin-5-yl)indoline-1-carboxamide]
< 0.1 µM	0.1 to 1 µM	O=C1CCC(N2Cc3cc(NC(=O)N4Cc5cc(C6CC6)ccc5C45COC5)ccc3C2=O)C(=O)N1 (centres unmarked) [Compound 302, 5-cyclopropyl-N-(2-(2,6-dioxopiperidin-3-yl)-1-oxoisoindolin-5-yl)spiro[isoindoline-1,3′-oxetane]-2-carboxamide]
< 0.1 µM	0.1 to 1 µM	O=C1CCC(N2Cc3cc(NC(=O)N4CC5(CCCC5)c5ccccc54)ccc3C2=O)C(=O)N1 (centres unmarked) [Compound 192, N-(2-(2,6-dioxopiperidin-3-yl)-1-oxoisoindolin-5-yl)spiro[cyclopentane-1,3′-indoline]-1′-carboxamide]
< 0.1 µM	0.1 to 1 µM	COCC1c2ccc(C(F)F)cc2CN1C(=O)Nc1ccc2c(c1)CN(C1CCC(=O)NC1=O)C2=O (centres unmarked) [Compound 299, 5-(difluoromethyl)-N-(2-(2,6-dioxopiperidin-3-yl)-1-oxoisoindolin-5-yl)-1-(methoxymethyl)isoindoline-2-carboxamide]
< 0.1 µM	0.1 to 1 µM	COCC1C2c3ccccc3N(C(=O)Nc3ccc4c(c3)CN(C3CCC(=O)NC3=O)C4=O)C12 (centres unmarked) [Compound 320, N-(2-(2,6-dioxopiperidin-3-yl)-1-oxoisoindolin-5-yl)-1-(methoxymethyl)-1a, 6b-dihydrocyclopropa[b]indole-2(1H)-carboxamide]
< 0.1 µM	0.1 to 1 µM	Cc1cc(C)c2c(c1)N(C(=O)Nc1ccc3c(c1)CN(C1CCC(=O)NC1=O)C3=O)CC2 (centres unmarked) [Compound 209]
< 0.1 µM	0.1 to 1 µM	C[C@@H]1Cc2ccccc2N1C(=O)Nc1ccc2c(c1F)CN(C1CCC(=O)NC1=O)C2=O (stereo partly drawn) [Compound 289, (2R)—N-(2-(2,6-dioxopiperidin-3-yl)-4-fluoro-1-oxoisoindolin-5-yl)-2-methylindoline-1-carboxamide]
0.1 to 1 µM	0.1 to 1 µM	CN(C)C(=O)[C@@H]1Cc2ccccc2N1C(=O)Nc1ccc2c(c1)CN(C1CCC(=O)NC1=O)C2=O (stereo partly drawn) [Compound 327, (2S)-N1-(2-(2,6-dioxopiperidin-3-yl)-1-oxoisoindolin-5-yl)-N2,N2-dimethylindoline-1,2-dicarboxamide]
< 0.1 µM	0.1 to 1 µM	COC[C@@H]1Cc2cc(C(F)(F)F)ncc2N1C(=O)Nc1ccc2c(c1)CN(C1CCC(=O)NC1=O)C2=O (stereo partly drawn) [Compound 294, (2S)—N-(2-(2,6-dioxopiperidin-3-yl)-1-oxoisoindolin-5-yl)-2-(methoxymethyl)-5-(trifluoromethyl)-2,3-dihydro-1H-pyrrolo[2,3-c]pyridine-1-carboxamide]
< 0.1 µM	0.1 to 1 µM	COCC1c2ccc(C(F)(F)F)cc2CN1C(=O)Nc1ccc2c(c1)CN(C1CCC(=O)NC1=O)C2=O (centres unmarked) [Compound 324, N-(2-(2,6-dioxopiperidin-3-yl)-1-oxoisoindolin-5-yl)-1-(methoxymethyl)-5-(trifluoromethyl)isoindoline-2-carboxamide]
< 0.1 µM	0.1 to 1 µM	O=C1CCC(N2Cc3cc(NC(=O)N4CCc5cc(C6CCOCC6)ccc54)ccc3C2=O)C(=O)N1 (centres unmarked) [Compound 349, N-(2-(2,6-dioxopiperidin-3-yl)-1-oxoisoindolin-5-yl)-5-(tetrahydro-2H-pyran-4-yl)indoline-1-carboxamide]
0.1 to 1 µM	0.1 to 1 µM	O=C1CCC(N2Cc3cc(NC(=O)N4c5ccccc5C[C@H]4CN4CCC4)ccc3C2=O)C(=O)N1 (stereo partly drawn) [Compound 315, (2S)-2-(azetidin-1-ylmethyl)-N-(2-(2,6-dioxopiperidin-3-yl)-1-oxoisoindolin-5-yl)indoline-1-carboxamide]
< 0.1 µM	0.1 to 1 µM	O=C1CCC(N2Cc3cc(NC(=O)N4c5ccccc5C5CC54)ccc3C2=O)C(=O)N1 (centres unmarked) [Compound 305, N-(2-(2,6-dioxopiperidin-3-yl)-1-oxoisoindolin-5-yl)-1a, 6b-dihydrocyclopropa[b]indole-2(1H)-carboxamide]
< 0.1 µM	0.1 to 1 µM	COC[C@@H]1CN(C(=O)Nc2ccc3c(c2)CN(C2CCC(=O)NC2=O)C3=O)c2ccccc21 (stereo partly drawn) [Compound 328, (3S)—N-(2-(2,6-dioxopiperidin-3-yl)-1-oxoisoindolin-5-yl)-3-(methoxymethyl)indoline-1-carboxamide]
< 0.1 µM	0.1 to 1 µM	Cc1cc2c(cc1C)N(C(=O)Nc1ccc3c(c1)CN(C1CCC(=O)NC1=O)C3=O)CC2 (centres unmarked) [Compound 171, N-(2-(2,6-dioxopiperidin-3-yl)-1-oxoisoindolin-5-yl)-5,6-dimethylindoline-1-carboxamide]
< 0.1 µM	0.1 to 1 µM	O=C1CCC(N2Cc3cc(NC(=O)N4c5ccccc5CC4C(F)(F)F)ccc3C2=O)C(=O)N1 (centres unmarked) [Compound 292, N-(2-(2,6-dioxopiperidin-3-yl)-1-oxoisoindolin-5-yl)-2-(trifluoromethyl)indoline-1-carboxamide]
< 0.1 µM	0.1 to 1 µM	O=C1CCC(N2Cc3cc(NC(=O)N4c5ccccc5C[C@H]4COC(F)F)ccc3C2=O)C(=O)N1 (stereo partly drawn) [Compound 309, (2S)-2-((difluoromethoxy)methyl)-N-(2-(2,6-dioxopiperidin-3-yl)-1-oxoisoindolin-5-yl)indoline-1-carboxamide]
< 0.1 µM	< 0.1 µM	O=C1CCC(N2Cc3cc(NC(=O)N4CCc5cc(C6COC6)ccc54)ccc3C2=O)C(=O)N1 (centres unmarked) [Compound 346, N-(2-(2,6-dioxopiperidin-3-yl)-1-oxoisoindolin-5-yl)-5-(oxetan-3-yl)indoline-1-carboxamide]
< 0.1 µM	0.1 to 1 µM	COCC1c2cc(C(F)(F)F)ccc2CN1C(=O)Nc1ccc2c(c1)CN(C1CCC(=O)NC1=O)C2=O (centres unmarked) [Compound 301]
< 0.1 µM	–	CC(C)(C)C1Cc2ccccc2N(C(=O)Nc2ccc3c(c2)CN(C2CCC(=O)NC2=O)C3=O)C1 (centres unmarked) [Compound 154]
0.1 to 1 µM	–	O=C1CCC(N2Cc3cc(NC(=O)N4CCC5CC54)ccc3C2=O)C(=O)N1 (centres unmarked) [Compound 221]
< 0.1 µM	–	O=C1CCC(N2Cc3cc(NC(=O)N4CCc5cccc(C(F)(F)F)c5C4)ccc3C2=O)C(=O)N1 (centres unmarked) [Compound 212]
0.1 to 1 µM	–	O=C1CCC(N2Cc3cc(NC(=O)N4CCCc5cccc(Cl)c54)ccc3C2=O)C(=O)N1 (centres unmarked) [Compound 158]
> 1 µM	–	N#Cc1cccc2c1CCCN2C(=O)Nc1ccc2c(c1)CN(C1CCC(=O)NC1=O)C2=O (centres unmarked) [Compound 126]
0.1 to 1 µM	–	O=C1CCC(N2Cc3cc(NC(=O)N4CC(c5cccc(F)c5)C4)ccc3C2=O)C(=O)N1 (centres unmarked) [Compound 238]
